The text below walks through data of patent US6534035B1, “Methods of inhibiting clot formation” (President and Fellows of Harvard College, priority 1998, dated 2003).

Test [1] has as its target T1, guinea pig tissue transglutaminase (Cavia cutleri, UniProt P08587).
T1 sequence (P08587 1-690): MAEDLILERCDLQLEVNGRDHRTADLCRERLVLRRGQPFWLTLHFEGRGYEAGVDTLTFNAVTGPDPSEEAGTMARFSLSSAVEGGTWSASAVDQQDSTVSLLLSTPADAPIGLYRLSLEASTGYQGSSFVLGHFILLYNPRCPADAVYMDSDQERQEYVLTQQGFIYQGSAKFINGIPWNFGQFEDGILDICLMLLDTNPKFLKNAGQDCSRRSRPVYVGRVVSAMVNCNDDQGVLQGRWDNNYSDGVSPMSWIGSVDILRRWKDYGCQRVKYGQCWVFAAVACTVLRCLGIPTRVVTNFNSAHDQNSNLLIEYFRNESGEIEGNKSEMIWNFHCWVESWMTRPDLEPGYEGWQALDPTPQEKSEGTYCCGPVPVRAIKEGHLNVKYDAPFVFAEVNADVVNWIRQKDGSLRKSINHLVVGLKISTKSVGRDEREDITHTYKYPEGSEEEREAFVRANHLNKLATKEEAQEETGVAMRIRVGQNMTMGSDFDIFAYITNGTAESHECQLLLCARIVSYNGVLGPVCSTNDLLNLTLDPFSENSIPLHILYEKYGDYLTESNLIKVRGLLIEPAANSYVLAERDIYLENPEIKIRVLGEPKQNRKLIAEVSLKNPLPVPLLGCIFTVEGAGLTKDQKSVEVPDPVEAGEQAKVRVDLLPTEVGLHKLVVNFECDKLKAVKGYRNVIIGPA
Put plainly: Crosslinking of α2AP13-24 into fibrin by tissue transglutaminase. Format: biochemical. Conditions: purified tissue transglutaminase (100 nM) added to FXIIIa-deficient fibrinogen. The procedure: Fibrin clots (50 μl) were prepared in duplicate by mixing FXIII-free fibrinogen (2 mg/ml final), α2AP13-24 (SEQ ID NO:2; 0.5 mM final), CaCl2 (2 mM final), human plasma FXIII (100 nM/L final) and guinea pig tissue transglutaminase (100 nM/L final) and thrombin (1 U/ml final) and incubating at 37° C. for 2 hours. The crosslinking of α2AP13-24 was detected as described above.

Test [2] deals with T2, FXIIIa (Homo sapiens, UniProt P00488).
T2 construct: purchased American Diagnostica
T2 sequence (P00488 39-732 limits assumed): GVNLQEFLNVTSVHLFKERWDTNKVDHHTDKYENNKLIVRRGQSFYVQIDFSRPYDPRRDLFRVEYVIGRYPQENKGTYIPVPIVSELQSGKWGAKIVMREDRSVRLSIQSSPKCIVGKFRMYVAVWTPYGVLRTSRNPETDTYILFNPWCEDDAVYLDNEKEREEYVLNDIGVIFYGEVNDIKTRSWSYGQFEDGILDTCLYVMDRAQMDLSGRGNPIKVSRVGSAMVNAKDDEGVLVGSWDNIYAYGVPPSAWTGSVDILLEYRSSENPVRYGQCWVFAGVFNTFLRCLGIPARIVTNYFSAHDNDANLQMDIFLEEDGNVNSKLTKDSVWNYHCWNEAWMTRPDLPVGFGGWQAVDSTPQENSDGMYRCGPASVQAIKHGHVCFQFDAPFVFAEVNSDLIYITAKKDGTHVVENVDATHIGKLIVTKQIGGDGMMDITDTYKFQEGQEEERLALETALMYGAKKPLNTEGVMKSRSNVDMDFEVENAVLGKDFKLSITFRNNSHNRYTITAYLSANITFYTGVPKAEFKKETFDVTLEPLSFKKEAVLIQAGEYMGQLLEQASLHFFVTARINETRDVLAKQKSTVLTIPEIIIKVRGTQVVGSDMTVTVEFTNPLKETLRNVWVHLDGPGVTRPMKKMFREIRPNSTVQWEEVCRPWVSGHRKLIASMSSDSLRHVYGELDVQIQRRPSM
Put plainly: FXIIIa catalytic half-life: crosslinking of substrates into fibrin clots of various ages. Type of test: biochemical. Conditions: substrate added to 2 or 4 hour old clots. The procedure:
Experiments were performed to determine how long FXIIIa in clots could crosslink various substrates such as human ^125I -α2AP, α2AP13-24 (SEQ ID NO:2), and 5-(biotinamido)pentylamine, into fibrin. In a typical experiment, clots were prepared (50 μl final volume) in duplicate by combining fibrinogen (2 mg/ml final), CaCl2 (2 mM final), buffer (Tris-buffered saline pH 7.4) and thrombin (1 U/ml) and incubating at 37° C. Synchronous with the addition of thrombin, or up to 240 minutes afterwards, the FXIIIa substrates 5-(biotinamido)pentylamine (0.5 mM final), ^125I -α2AP (70 μg/ml final), and α2AP13-24 (0 to 1 mM final) were mixed and added to the clot. In one set of control samples, FXIIIa was inhibited with iodoacetamide (10 mg/ml) prior to the addition of substrate; to another set, no substrate was added. After 2 hours of incubation at 37° C., iodoacetamide (10 mg/ml) was added to stop the reaction. The tubes were then centrifuged at 14,000 rpm for 2 minutes, washed and compressed in 1 ml saline to remove unbound proteins, and centrifuged again at 14,000 rpm for 2 minutes. After removal of the supernatant, the clots were solubilized in 100 μL of 9M urea, pH 9.0 at 37° C. for 60 minutes. Then 100 μl of SDS reducing sample buffer was added and the clots were placed at 85° C. for 30 minutes until fully solubilized. The samples were examined by SDS-PAGE. Crosslinked ^125I-α2AP was detected and quantitated by phosphorimaging. Samples containing crosslinked α2AP13-24 and pentylamine substrates were electroblotted to PVDF membranes and detected by ^125I-streptavidin followed by phosphorimaging or by streptavidin-peroxidase followed by the developing agents 5-bromo-4-chloro-3-indolyl phosphate-nitro blue tetrazolium using methods known in the art. In experiments examining the effect of specific amino acid residues on the crosslinking of the α2AP13-24 peptide (SEQ ID NO:2) to fibrin, crosslinking was detected by immunoblotting with an anti-peptide antibody directed against this epitope followed by ^125I-protein A and phosphorimaging. […]

Peptide text beside a SMILES is read from it. * marks the point of attachment. Biotin = O=C1N[C@H]2[C@H](CS[C@H]2CCCCC(=O)*)N1

Regarding `CC(C)C[C@H](NC(=O)[C@H](CC(C)C)NC(=O)[C@@H](NC(=O)[C@H](CC(C)C)NC(=O)[C@@H]1CCCN1C(=O)[C@H](CO)NC(=O)[C@@H](NC(=O)[C@H](CCC(N)=O)NC(=O)[C@H](CCC(=O)O)NC(=O)[C@H](CCC(N)=O)NC(=O)[C@@H](N)CC(N)=O)C(C)C)[C@@H](C)O)C(=O)N[C@@H](CCCCNC(=O)CCCC[C@@H]1SC[C@@H]2NC(=O)N[C@@H]21)C(=O)O` [α2AP13-24, NQEQVSPLTLLK] (H-NQEQVSPLTLLK(Biotin)-OH), the “crosslinking of peptide to fibrin” value in test [1] is “slight increase in crosslinking”. The “residual FXIIIa crosslinking of substrate” value in test [2] is recorded as “little residual FXIIIa crosslinking”.
